Data on six compounds can be found in US10988523B2, “Modified lipidated Relaxin B chain peptides and their therapeutic use” (Sanofi, priority 2018, dated 2021).

The test deals with T1, RXFP1 (Homo sapiens, UniProt Q9HBX9).
T1 construct: OVCAR5 cells expressing endogenous RXFP1; endogenous in cells; host or cells: OVCAR5 cells
T1 sequence (Q9HBX9 1-757): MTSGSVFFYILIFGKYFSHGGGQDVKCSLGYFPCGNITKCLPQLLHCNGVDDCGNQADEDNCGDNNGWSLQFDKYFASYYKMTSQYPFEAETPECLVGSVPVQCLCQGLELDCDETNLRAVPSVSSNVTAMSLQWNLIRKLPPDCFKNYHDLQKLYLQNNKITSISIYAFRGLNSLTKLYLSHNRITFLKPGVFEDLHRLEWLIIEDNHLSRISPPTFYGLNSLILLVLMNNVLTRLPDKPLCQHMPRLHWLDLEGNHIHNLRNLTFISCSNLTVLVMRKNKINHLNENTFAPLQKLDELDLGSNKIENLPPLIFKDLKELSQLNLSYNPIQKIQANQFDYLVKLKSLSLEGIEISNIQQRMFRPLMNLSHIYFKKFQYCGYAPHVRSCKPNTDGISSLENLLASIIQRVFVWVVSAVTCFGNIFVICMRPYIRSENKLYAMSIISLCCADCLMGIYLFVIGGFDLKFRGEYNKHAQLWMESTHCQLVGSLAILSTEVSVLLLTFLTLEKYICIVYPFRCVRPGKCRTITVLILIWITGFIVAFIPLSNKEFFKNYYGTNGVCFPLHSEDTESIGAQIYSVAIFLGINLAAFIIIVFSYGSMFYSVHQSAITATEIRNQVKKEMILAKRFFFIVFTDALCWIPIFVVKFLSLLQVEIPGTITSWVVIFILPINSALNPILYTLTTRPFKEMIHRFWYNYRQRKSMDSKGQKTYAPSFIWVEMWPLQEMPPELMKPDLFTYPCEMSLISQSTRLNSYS
Put plainly: OVCAR5 cAMP assay (HTRF), RXFP1 agonist activity. Type of test: cell-based. The conditions noted are these: for Emax: OVCAR-5, maximal cAMP relative to H2-relaxin maximum (100%), read-out: EMax, OVCAR 5 cells (cAMP). From the text:
OVCAR5 cells expressing endogenous RXFP1 were used to test RXP1 agonist properties of peptides of the invention, and in particular of the peptides of sequence SEQ ID NO: 1-193.
Since RXFP1 is a Gs coupled GPCR, cAMP was used as readout of RXFP1 activation.
Isobutyl Methyl Xanthine (IBMX) was used to inhibit phosphodiesterase activity facilitating cAMP measurements. HTRF (Homogenous Time Resolved Fluorescence) technology was used to detect cAMP due to its great sensitivity.
In summary, OVCAR5 were grown in regular medium (RPMI) containing 10% fetal calf serum (FCS) and 1% antibiotics (penicillin/streptomycin).
Before the experiments, cells were detached with accutase and incubated for 40 minutes at 37° C. with 1 mM (3-isobutyl-1-methylxanthine) IBMX.
Cells were then distributed in 384 black well plates containing increasing concentrations of the different peptides in a fix volume of medium (without FCS).
After an incubation of 30 min at 37° C. in an humid incubator in 5% CO2, the reaction was stopped by adding a fixed volume of a solution containing a lysis buffer and cAMP-D2 (cAMP labeled with the dye d2) and the anti cAMP antibody linked to Europium and used for cAMP detection.
Readout of the experiment were performed on a fluorimeter allowing HTRF measurement. Activation curves were generated by plotting the intracellular value of cAMP versus log 10 of the compound concentration.
The 50% activation concentration (EC50) was calculated by nonlinear regression using the sigmoidal dose-response (variable slope) equation with Prism 5 software.
Emax % is determined as the maximal intracellular value of cAMP for test compound (upper limit of cAMP vs concentration curve) divided by the maximal intracellular value of cAMP for H2-relaxin determined in the same test occasion multiplied by 100. Emax %=100×[cAMPtest cpd]/[cAMPH2-RlX]
(cAMP levels reflect the balance of adenylyl cyclase and phosphodiesterase activity.)

*1 amine or outer side, *2 acyl side, *3 side chain or, on linkers, in order; H or OH if unused. Where a SMILES comes first, the peptide text is derived from it. Side-chain parts run from the residue outwards. [ ]: non-standard residue; d: D form. The star is where a group is joined. X14 = CCCCCCCCCCCCCCC(=O)N[C@@H](CCC(=O)N[C@@H](CCC(=O)N[C@@H](CCC(=O)NCCCC[C@H](NC(=O)CCC(=O)NCCCOCCOCCOCCCNC(=O)CCC(=O)NCCCOCCOCCOCCCNC(=O)CCC(=O)NCCCOCCOCCOCCCN*)C(N)=O)C(=O)O)C(=O)O)C(=O)O; PEG12 = NCCOCCOCCOCCOCCOCCOCCOCCOCCOCCOCCOCCOCCC(=O)O; γGlu = O=C(O)[C@H](CCC(=O)[*:2])N[*:1]; Pentadecanoyl = CCCCCCCCCCCCCCC(=O)*; Stearoyl = CCCCCCCCCCCCCCCCCC(=O)*; Palmitoyl = CCCCCCCCCCCCCCCC(=O)*; αMeK = C[C@](N)(CCCCN)C(=O)O; Nle = CCCC[C@H](N)C(=O)O; AEEA = NCCOCCOCC(=O)O; Aib = CC(C)(N)C(=O)O

Usually Emax stands for the size of the effect at its maximum, as opposed to the concentration needed. For the compound `CCCCCCCCCCCCCCCC(=O)N[C@@H](CCC(=O)N[C@@H](CCC(=O)N[C@@H](CCC(=O)NCCCC[C@H](NC(=O)COCCOCCNC(=O)[C@H](CCCCN)NC(=O)[C@H](CCCNC(=N)N)NC(=O)C(C)(C)NC(=O)[C@H](CO)NC(=O)[C@H](Cc1c[nH]c2ccccc12)NC(=O)[C@@H](NC(=O)[C@H](CO)NC(=O)[C@H](CCCC)NC(=O)CNC(=O)[C@H](CCC(=O)O)NC(=O)C(C)(C)NC(=O)C(C)(C)NC(=O)[C@@H](NC(=O)[C@H](CCC(N)=O)NC(=O)[C@H](C)NC(=O)[C@H](CCCNC(=N)N)NC(=O)[C@@H](NC(=O)[C@H](CCCCN)NC(=O)[C@H](CCC(=O)O)NC(=O)[C@H](CCCNC(=N)N)NC(=O)CNC(=O)[C@H](CCC(=O)O)NC(=O)[C@H](CC(C)C)NC(C)=O)C(C)C)[C@@H](C)CC)[C@@H](C)O)C(N)=O)C(=O)O)C(=O)O)C(=O)O` [compound 10] (Ac-LEGREKVRAQI[Aib][Aib]EG[Nle]STWS[Aib]RK[AEEA]K([γGlu-γGlu-γGlu-Palmitoyl])-NH2), the maximal effect (Emax) was 96%. Still for that read-out and setting: the figure for `CCCCCCCCCCCCCCCC(=O)N[C@@H](CCC(=O)NCCCC[C@H](NC(=O)CC[C@H](NC(=O)CC[C@H](NC(=O)COCCOCCNC(=O)COCCOCCNC(=O)COCCOCCNC(=O)COCCOCCNC(=O)[C@H](CCCCNC(C)=O)NC(=O)[C@H](CCCCN)NC(=O)[C@H](CCCNC(=N)N)NC(=O)C(C)(C)NC(=O)[C@H](CO)NC(=O)[C@H](Cc1c[nH]c2ccccc12)NC(=O)[C@@H](NC(=O)[C@H](CO)NC(=O)[C@H](CCCC)NC(=O)CNC(=O)[C@H](CCC(=O)O)NC(=O)C(C)(C)NC(=O)C(C)(C)NC(=O)[C@@H](NC(=O)[C@H](CCC(N)=O)NC(=O)[C@H](C)NC(=O)[C@H](CCCNC(=N)N)NC(=O)[C@@H](NC(=O)[C@H](CCCCN)NC(=O)[C@H](CCC(=O)O)NC(=O)[C@H](CCCNC(=N)N)NC(=O)CNC(=O)[C@H](CCC(=O)O)NC(=O)[C@H](CC(C)C)NC(C)=O)C(C)C)[C@@H](C)CC)[C@@H](C)O)C(=O)O)C(=O)O)C(N)=O)C(=O)O` [compound 121] (Ac-LEGREKVRAQI[Aib][Aib]EG[Nle]STWS[Aib]RKK(Ac)[AEEA][AEEA][AEEA][AEEA][γGlu][γGlu]K([γGlu-Palmitoyl])-NH2) is 91%. As a reminder, the EC50 is the concentration giving half of the maximal effect. Take `CCCCCCCCCCCCCCC(=O)N[C@@H](CCC(=O)N[C@@H](CCC(=O)NCCCC[C@H](NC(=O)CC[C@H](NC(=O)CC[C@H](NC(=O)COCCOCCNC(=O)COCCOCCNC(=O)COCCOCCNC(=O)COCCOCCNC(=O)[C@H](CCCCNC(C)=O)NC(=O)[C@H](C)NC(=O)[C@H](CCCNC(=N)N)NC(=O)[C@](C)(CCCCN)NC(=O)[C@H](CO)NC(=O)[C@H](Cc1ccccc1)NC(=O)[C@@H](NC(=O)[C@H](CO)NC(=O)[C@H](CCCC)NC(=O)CNC(=O)[C@H](CCC(=O)O)NC(=O)C(C)(C)NC(=O)C(C)(C)NC(=O)[C@@H](NC(=O)[C@H](CCCCNC(C)=O)NC(=O)[C@H](C)NC(=O)[C@H](CCCNC(=N)N)NC(=O)[C@@H](NC(=O)[C@H](CCCCN)NC(=O)[C@H](CCC(=O)O)NC(=O)[C@H](CCCNC(=N)N)NC(=O)CNC(=O)[C@H](CCC(=O)O)NC(=O)[C@H](CC(C)C)NC(C)=O)C(C)C)[C@@H](C)CC)[C@@H](C)O)C(=O)O)C(=O)O)C(N)=O)C(=O)O)C(=O)O` [compound 168] (Ac-LEGREKVRAK(Ac)I[Aib][Aib]EG[Nle]STFS[αMeK]RAK(Ac)[AEEA][AEEA][AEEA][AEEA][γGlu][γGlu]K([γGlu-γGlu-Pentadecanoyl])-NH2): the Emax amounted to 91%. The EC50 (OVCAR5 cells, cAMP HTRF, read-out: EC50 (nM), OVCAR 5 cells (cAMP)) was determined as 0.06 nM. For `CCCCCCCCCCCCCCCCCC(=O)N[C@@H](CCC(=O)N[C@@H](CCC(=O)N[C@@H](CCC(=O)NCCOCCOCC(=O)NCCOCCOCC(=O)NCCOCCOCC(=O)NCCCC[C@H](NC(=O)[C@H](CCCCNC(C)=O)NC(=O)[C@H](CCCCN)NC(=O)[C@H](CCCNC(=N)N)NC(=O)C(C)(C)NC(=O)[C@H](CO)NC(=O)[C@H](Cc1c[nH]c2ccccc12)NC(=O)[C@@H](NC(=O)[C@H](CO)NC(=O)[C@H](CCC(N)=O)NC(=O)CNC(=O)[C@H](CCC(=O)O)NC(=O)C(C)(C)NC(=O)C(C)(C)NC(=O)[C@@H](NC(=O)[C@H](CCCCNC(C)=O)NC(=O)[C@H](C)NC(=O)[C@H](CCCNC(=N)N)NC(=O)[C@@H](NC(=O)[C@H](CCCCN)NC(=O)[C@H](CCC(=O)O)NC(=O)[C@H](CCCNC(=N)N)NC(=O)CNC(=O)[C@H](CCC(=O)O)NC(=O)[C@H](CC(C)C)NC(C)=O)C(C)C)[C@@H](C)CC)[C@@H](C)O)C(N)=O)C(=O)O)C(=O)O)C(=O)O` [compound 113] (Ac-LEGREKVRAK(Ac)I[Aib][Aib]EGQSTWS[Aib]RKK(Ac)K([AEEA-AEEA-AEEA-γGlu-γGlu-γGlu-Stearoyl])-NH2), the maximal response (Emax) was 89%. With `CCCCCCCCCCCCCCCCCC(=O)N[C@@H](CCC(=O)NCCCC[C@H](NC(=O)CCOCCOCCOCCOCCOCCOCCOCCOCCOCCOCCOCCOCCNC(=O)[C@H](CCCCN)NC(=O)[C@H](CCCCN)NC(=O)[C@H](CCCNC(=N)N)NC(=O)C(C)(C)NC(=O)[C@H](CO)NC(=O)[C@H](Cc1c[nH]c2ccccc12)NC(=O)[C@@H](NC(=O)[C@H](CO)NC(=O)[C@H](CCCC)NC(=O)CNC(=O)[C@H](CCC(=O)O)NC(=O)C(C)(C)NC(=O)C(C)(C)NC(=O)[C@@H](NC(=O)[C@H](CCC(N)=O)NC(=O)[C@H](C)NC(=O)[C@H](CCCNC(=N)N)NC(=O)[C@@H](NC(=O)[C@H](CCCCN)NC(=O)[C@H](CCC(=O)O)NC(=O)[C@H](CCCNC(=N)N)NC(=O)CNC(=O)[C@H](CCC(=O)O)NC(=O)[C@H](CC(C)C)NC(C)=O)C(C)C)[C@@H](C)CC)[C@@H](C)O)C(N)=O)C(=O)O` [compound 22] (Ac-LEGREKVRAQI[Aib][Aib]EG[Nle]STWS[Aib]RKK[PEG12]K([γGlu-Stearoyl])-NH2), the Emax turned out to be 104%. Regarding `CCCCCCCCCCCCCCC(=O)N[C@@H](CCC(=O)N[C@@H](CCC(=O)N[C@@H](CCC(=O)NCCCC[C@H](NC(=O)CCC(=O)NCCCOCCOCCOCCCNC(=O)CCC(=O)NCCCOCCOCCOCCCNC(=O)CCC(=O)NCCCOCCOCCOCCCNC(=O)[C@H](CCCCNC(C)=O)NC(=O)[C@H](C)NC(=O)[C@H](CCCNC(=N)N)NC(=O)[C@](C)(CCCCN)NC(=O)[C@H](CO)NC(=O)[C@H](Cc1ccccc1)NC(=O)[C@@H](NC(=O)[C@H](CO)NC(=O)[C@H](CCCC)NC(=O)CNC(=O)[C@H](CCC(=O)O)NC(=O)C(C)(C)NC(=O)C(C)(C)NC(=O)[C@@H](NC(=O)[C@H](CCCCNC(C)=O)NC(=O)[C@H](C)NC(=O)[C@H](CCCNC(=N)N)NC(=O)[C@@H](NC(=O)[C@H](CCCCN)NC(=O)[C@H](CCC(=O)O)NC(=O)[C@H](CCCNC(=N)N)NC(=O)CNC(=O)[C@H](CCC(=O)O)NC(=O)[C@H](CC(C)C)NC(C)=O)C(C)C)[C@@H](C)CC)[C@@H](C)O)C(N)=O)C(=O)O)C(=O)O)C(=O)O` [compound 188] (Ac-LEGREKVRAK(Ac)I[Aib][Aib]EG[Nle]STFS[αMeK]RAK(Ac)-X14), the Emax amounted to 100%.
